The results in this text go back to US4710568A, “Carbapenem antibiotics” (priority 1986, dated 1987).

Values after ≈ are worked out from the molar mass of the structure shown. Where two headings read alike, the source gives them in different places.

In data set [1] the test system is S. faecalis A20688. Kind of data set: MIC by tube dilution in Nutrient Broth. The class given is cell-based. As to conditions: additional data; overnight at 37° C.
In data set [2] the test system is P. aeruginosa A-9843A. The experiment in a line: MIC by tube dilution in Nutrient Broth. Type of data set: cell-based. The conditions noted are these: additional data; overnight at 37° C.
Data set [3] has as its system E. coli A15119. Kind of data set: MIC by tube dilution in Nutrient Broth. The class given is cell-based. The conditions noted are these: overnight at 37° C.
Data set [4] is described as follows: half-life in phosphate buffer pH 7.4. Type of data set: physicochemical. As to conditions: for t1/2: pH 7.4. Here is the method:
To a solution of p-nitrobenzyl 3-[2-(1-pyridinium)ethylthio]-6α-[1-(R)-hydroxyethyl]-7-oxo-1-azabicyclo(3.2.0)hept-2-ene-carboxylate diphenylphosphate (0.16 g, 0.22 mmol) in wet tetrahydrofuran (10 mL) was added ether (10 mL), potassium phosphate monobasic-sodium hydroxide buffer pH 7.4 (16 mL, 0.05M) and 10% palladium on charcoal (0.16 g). The resulting mixture was hydrogenated under 40 psi for 1 h at 25° C. The two phases were separated and the organic phase was extracted with water (2×3 mL). The aqueous solutions were combined, washed with ether (2×10 mL) and poured on top of a column (1.5×6.2 cm) of μ-bondapak C-18 after the traces of organic solvents have been removed under vacuum.
To a solution of p-nitrobenzyl 3-[2-(1-(3,5-dimethylpyridinium))ethylthio]-6α-[1-(R)-hydroxyethyl]- 7-oxo-1-azabicyclo(3.2.0)hept-2-ene-2-carboxylate diphenylphosphate (0.600 g, 0.80 mmol) in wet tetrahydrofuran (36 mL) was added ether (36 mL), potassium phosphate monobasic-sodium hydroxide buffer (0.05M, pH 7.4, 44 mL) and 10% palladium on charcoal (0.60 g). The resulting mixture was hydrogenated under 40 psi at 23° C. for 1.25 h. The organic layer was separated and extracted with buffer (2×5 mL). […] Elution of the column with water and lyophilization of the appropriate fractions gave the title compound 0.186 g (64%) as a yellowish powder, ir (KBr) .nu.max : 3700-3100 (OH), 1760 (C= O of β-lactam), 1595 cm^-1 (carboxylate), ^1 Hmr (D2 O) δ: 1.21 (3H, d, J=6.3 Hz, CH3 CHOH), 2.45 (6H, s, CH3 on pyridinium), 2.81 (d, J=9.2 Hz, H-4), 2.96 (d, J=9.2 Hz, H-4), 3.22 (dd, J=2.6 Hz, J=6.2 Hz, H-6), 3.40 (t, J=6.2 Hz, CH2 S), 3.84 (dd, J=9.2 Hz, J=2.6 Hz, H-5), 4.15 (m, CH3 CHOH), 4.71 (t, J=6.2 Hz, CH2 N^+), 8.21 (1H, s, Hp of pyridinium), 8.46 (2H, s, Ho of pyridinium), uv (H2 O) λmax : 279 (ε8345), 296 (ε7714) m, [α]D^23 +40.7 (c 0.53, H2 O), .tau.1/2 =16.9 h (measured at a concentration of […] in phosphate buffer pH 7.4 at 36.8° C.). […]

The subject of data set [5] is E. cloacae A-9659. Kind of data set: MIC by tube dilution in Nutrient Broth. The class given is cell-based. The conditions noted are these: additional data; overnight at 37° C.
Data set [6] concerns S. pyogenes A-9604. The experiment in a line: MIC by tube dilution in Nutrient Broth. Type of data set: cell-based. The conditions noted are these: additional data; overnight at 37° C.
For data set [7], the system named is S. aureus (Pen-res.) A-9606. Kind of data set: MIC by tube dilution in Nutrient Broth. The class given is cell-based. As to conditions: additional data, overnight at 37° C.
For data set [8], the system named is P. morganii A15153. Kind of data set: MIC by tube dilution in Nutrient Broth. Type of data set: cell-based. As to conditions: additional data (M. morganii A15153); overnight at 37° C.
Data set [9] has as its system K. pneumoniae A20468. The experiment in a line: MIC by tube dilution in Nutrient Broth. The class given is cell-based. The conditions noted are these: additional data; overnight at 37° C.
Data set [10] deals with S. pneumoniae A-9585. Kind of data set: MIC by tube dilution in Nutrient Broth. Type of data set: cell-based. As to conditions: additional data; overnight at 37° C.
The subject of data set [11] is P. mirabilis A-9900. The experiment in a line: MIC by tube dilution in Nutrient Broth. The class given is cell-based. As to conditions: additional data; overnight at 37° C.
For data set [12], the system named is S. aureus A-9537. Kind of data set: MIC by tube dilution in Nutrient Broth. The class given is cell-based. The conditions noted are these: additional data, overnight at 37° C.
In data set [13] the test system is E. cloacae A-9656. The experiment in a line: MIC by tube dilution in Nutrient Broth. Type of data set: cell-based. The conditions noted are these: additional data; overnight at 37° C.
Data set [14] relates to P. rettgeri A22424. The experiment in a line: MIC by tube dilution in Nutrient Broth. The class given is cell-based. The conditions noted are these: additional data; overnight at 37° C.
The subject of data set [15] is P. aeruginosa A21213. Kind of data set: MIC by tube dilution in Nutrient Broth. The class given is cell-based. As to conditions: additional data; overnight at 37° C.
In data set [16] the test system is K. pneumoniae A-9664. Kind of data set: MIC by tube dilution in Nutrient Broth. Type of data set: cell-based. The conditions noted are these: additional data; overnight at 37° C.
Data set [17] concerns P. vulgaris A21559. The experiment in a line: MIC by tube dilution in Nutrient Broth. Type of data set: cell-based. The conditions noted are these: additional data; overnight at 37° C.
Data set [18] deals with E. coli A20341-1. The experiment in a line: MIC by tube dilution in Nutrient Broth. Type of data set: cell-based. As to conditions: overnight at 37° C.
For data set [19], the system named is S. marcescens A20019. The experiment in a line: MIC by tube dilution in Nutrient Broth. Type of data set: cell-based. The conditions noted are these: additional data; overnight at 37° C.
The mark [20] stands for this setting: Escherichia coli, A15119, additional data, read-out: MIC.

As a reminder, the MIC is the least concentration at which growth counts as inhibited. Take `CC(C[n+]1ccccc1)SC1=C(C(=O)[O-])N2C(=O)[C@H]([C@@H](C)O)[C@H]2C1` (single isomer, unassigned) [Ex. 15 (cmp. "A")]: the MIC in data set [1] came out at 2 µg/mL (≈ 5.74 µM); in data set [2], 8 µg/mL (≈ 23 µM); in data set [3] (additional data) it was 0.03 µg/mL (≈ 0.0861 µM); in data set [5], 0.13 µg/mL (≈ 0.373 µM); in [6] it was 0.004 µg/mL (≈ 0.0115 µM); in data set [7], 0.06 µg/mL (≈ 0.172 µM). Moreover, the MIC in [8] stood at 0.13 µg/mL (≈ 0.373 µM); in data set [9], 0.13 µg/mL (≈ 0.373 µM); in data set [10], 0.004 µg/mL (≈ 0.0115 µM); in data set [11], 0.13 µg/mL (≈ 0.373 µM); in data set [12] (50% serum) it was 0.06 µg/mL (≈ 0.172 µM); in data set [12], 0.016 µg/mL (≈ 0.0459 µM). The MIC in data set [13] and in [14] was 0.25 µg/mL (≈ 0.718 µM) throughout. In [4], this compound returned a t1/2 of 15.6 h.
For `CC(C[n+]1ccccc1)SC1=C(C(=O)[O-])N2C(=O)[C@H]([C@@H](C)O)[C@H]2C1` (single isomer, unassigned) [Ex. 15 (cmp. "B")], the MIC in data set [15] was 1 µg/mL (≈ 2.87 µM); in [1], 0.5 µg/mL (≈ 1.44 µM); in data set [2] it was 32 µg/mL (≈ 91.8 µM); in data set [16] it was 0.03 µg/mL (≈ 0.0861 µM); in data set [17], 0.016 µg/mL (≈ 0.0459 µM); in [3] (additional data) it was 0.008 µg/mL (≈ 0.023 µM). Further, the MIC in data set [5] is 0.06 µg/mL (≈ 0.172 µM); in data set [6] it was 0.001 µg/mL (≈ 0.00287 µM); in [7], 0.016 µg/mL (≈ 0.0459 µM); in data set [18] (additional data) it was 0.016 µg/mL (≈ 0.0459 µM); in data set [8], 0.06 µg/mL (≈ 0.172 µM); in data set [9], 0.06 µg/mL (≈ 0.172 µM). In addition, the minimal inhibitory concentration (MIC) in [10] was 0.001 µg/mL (≈ 0.00287 µM); in [11], 0.03 µg/mL (≈ 0.0861 µM); in data set [12] (50% serum), 0.016 µg/mL (≈ 0.0459 µM); in data set [12], 0.004 µg/mL (≈ 0.0115 µM); in [19], 0.03 µg/mL (≈ 0.0861 µM).
For orientation: half-life means the time in which the quantity being followed falls by half. The low end stands for fast loss, the high end for slow loss. Regarding `C[C@@H](O)[C@H]1C(=O)N2C(C(=O)[O-])=C(SC3CCCCC3[n+]3ccccc3)C[C@H]12` (single isomer, unassigned) [Ex. 16 (cmp. "A"), (5R,6S)3-[2-[(R or S)-(1-pyridinium)]-1-(R or S)-cyclohexylthio]-6-[1-(R)-hydroxyethyl]-7-oxo-1-azabicyclo(3.2.0)hept-2-ene-2-carboxylate], the MIC in data set [15] turned out to be 2 µg/mL (≈ 5.15 µM); in [1] it was 4 µg/mL (≈ 10.3 µM); in data set [2], 32 µg/mL (≈ 82.4 µM); in [16], 0.13 µg/mL (≈ 0.335 µM); in data set [17] it was 0.06 µg/mL (≈ 0.154 µM); in data set [6], 0.004 µg/mL (≈ 0.0103 µM). Moreover, the MIC in [7] (Staphylococcus aureus, read-out: MIC) is 0.13 µg/mL (≈ 0.335 µM); in [18] (additional data), 0.06 µg/mL (≈ 0.154 µM); in [8], 0.13 µg/mL (≈ 0.335 µM); in [10], 0.004 µg/mL (≈ 0.0103 µM); in [11], 0.13 µg/mL (≈ 0.335 µM); in data set [12] (50% serum), 0.06 µg/mL (≈ 0.154 µM). Moreover, the minimal inhibitory concentration (MIC) in data set [12] was found to be 0.06 µg/mL (≈ 0.154 µM); in data set [14] it was 4 µg/mL (≈ 10.3 µM). The same compound had a half-life in [4] (pH 7.4, t1/2) of 16.6 h.
For `C[C@@H](O)[C@H]1C(=O)N2C(C(=O)[O-])=C(SC3CCCCC3[n+]3ccccc3)C[C@H]12` (single isomer, unassigned) [Ex. 16 (cmp. "B"), (5R,6S)3-[2-[(R or S)-(1-pyridinium)]-1-(R or S)-cyclohexylthio]-6-[1-(R)-hydroxyethyl]-7-oxo-1-azabicyclo(3.2.0)hept-2-ene-2-carboxylate], the MIC stood at 8 µg/mL (≈ 20.6 µM) in data set [15], 0.13 µg/mL (≈ 0.335 µM) in data set [17], 0.5 µg/mL (≈ 1.29 µM) in data set [8] and 0.13 µg/mL (≈ 0.335 µM) in [12]. The t1/2 in data set [4] is 20.2 h.
On to `COc1ccc[n+](CCSC2=C(C(=O)[O-])N3C(=O)[C@H]([C@@H](C)O)[C@H]3C2)c1` [Ex. 10, 3-[2-(3-methoxy-1-pyridinium)ethylthio]6α-[1'-(R)-hydroxyethyl]-7-oxo-1-azabicyclo(3.2.0)hept-2-ene-2-carboxylate], for which the MIC in data set [18] (Escherichia coli, A203411, additional data, read-out: MIC) is 0.06 µg/mL (≈ 0.165 µM).
`Cc1cccc(C)[n+]1CCSC1=C(C(=O)[O-])N2C(=O)[C@H]([C@@H](C)O)[C@H]2C1` [Ex. 12]: in data set [3] (setting [20]), the minimum inhibitory concentration (MIC) was determined as 0.03 µg/mL (≈ 0.0828 µM).
For the compound `C[C@@H](O)[C@H]1C(=O)N2C(C(=O)[O-])=C(SCC[n+]3cccc(N)c3)C[C@H]12` [Ex. 14, (5R,6S)-3-[2-(3-aminopyridinio)ethylthio]-6-[1-(R)-hydroxyethyl]-7-oxo-1-azabicyclo[3.2.0]hept-2-ene-2-carboxylate], the minimum inhibitory concentration (MIC) in data set [3] (setting [20]) was 0.03 µg/mL (≈ 0.0859 µM).
